Measured values published in PubChem BioAssay (NCI).
Values joined by “and” are separate entries in the source; they are usually repeats but may differ in a detail not shown here. Identical values can stand only once.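 Step 1: Grow cells in 96-well plates. Step 2: Expose to compound for 48 hours at 5 concentrations. Step 3: Interpolate endpoints linearly; if unreached, use highest concentration. GI50 = concentration required for 50% inhibition of growth. The concentration for full growth arrest is given as TGI.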

How the values were obtained:
Test in all cases: NCI-60 cell line screen, 48 h
LXFL 529 NSCLC = test system: LXFL 529 NSCLC
OVCAR-5 ovarian = test system: OVCAR-5 ovarian
SN12C renal = test system: SN12C renal
MOLT-4 leukemia = test system: MOLT-4 leukemia
UACC-257 melanoma = test system: UACC-257 melanoma
PC-3 prostate = test system: PC-3 prostate
K-562 leukemia = test system: K-562 leukemia
KM20L2 colon = test system: KM20L2 colon
OVCAR-8 ovarian = test system: OVCAR-8 ovarian
KM12 colon = test system: KM12 colon

| SMILES | TGI (LXFL 529 NSCLC) | TGI (OVCAR-5 ovarian) | TGI (SN12C renal) | TGI (MOLT-4 leukemia) | TGI (UACC-257 melanoma) | TGI (PC-3 prostate) | TGI (K-562 leukemia) | TGI (KM20L2 colon) | TGI (OVCAR-8 ovarian) | TGI (KM12 colon) | GI50 (LXFL 529 NSCLC) | GI50 (SN12C renal) | GI50 (MOLT-4 leukemia) | GI50 (K-562 leukemia) | GI50 (KM20L2 colon) | GI50 (OVCAR-8 ovarian) | GI50 (KM12 colon) |
| --- | --- | --- | --- | --- | --- | --- | --- | --- | --- | --- | --- | --- | --- | --- | --- | --- | --- |
| Nc1ccc2c(SCC(=O)Nc3ccccc3-c3ccccc3NC(=O)CSc3c4ccccc4nc4cc(N)ccc34)c3ccccc3nc2c1 | 41.3 µM | > 100 µM | > 87.2 µM | > 44.1 µM | 71.9 µM | 54.6 µM | 28.3 µM | > 93.5 µM | 73.2 µM | 65.8 µM |  |  |  |  |  |  |  |
| COc1cc(/C=C2/C(=O)N(C(=O)c3ccccc3O)N=C2C)ccc1O | > 100 µM | > 100 µM | > 39.1 µM | > 100 µM | > 100 µM | > 100 µM | > 100 µM | > 100 µM | > 100 µM | > 100 µM |  |  |  |  |  |  |  |
| OCCN(CCO)c1ncnc2c1sc(=S)n2-c1ccccc1 | > 100 µM | > 100 µM | > 100 µM | > 100 µM | > 100 µM |  | > 100 µM | > 100 µM | > 100 µM | > 100 µM |  |  |  |  |  |  |  |
| O=c1/c(=C/c2ccc3c(c2)OCO3)sc2nnc(Cc3ccccc3)n12 | > 100 µM | > 100 µM | > 100 µM | > 100 µM | > 100 µM |  | > 100 µM | > 100 µM | > 100 µM | > 100 µM |  |  |  |  |  |  |  |
| Cc1cc(N(CCC#N)CCC#N)ccc1/C=C/C(=O)Nc1ccccc1Cl | > 100 µM | > 100 µM | > 100 µM | > 100 µM | > 100 µM |  | > 100 µM | > 100 µM | > 100 µM | > 100 µM |  |  |  |  |  |  |  |
| CCOc1ccccc1NC(=O)CCC(=O)NN | > 100 µM | > 100 µM | > 100 µM | > 100 µM | > 100 µM |  | > 100 µM | > 100 µM | > 100 µM | > 100 µM |  |  |  |  |  |  |  |
| CN1C(=O)CC2(C)c3cc(C=O)ccc3N(C)C12 (stereo not drawn) | > 100 µM | > 100 µM | > 100 µM | > 100 µM | > 100 µM |  | > 100 µM | > 100 µM | > 100 µM | > 100 µM |  |  |  |  |  |  |  |
| COc1cc2c(c(OC)c1OC)-c1ccc(SC)c(=O)cc1[C@@H](NC(=O)c1ccc(F)cc1)CC2 | > 100 µM | > 100 µM | 46.8 µM | > 100 µM | > 100 µM |  | > 100 µM | 0.0427 µM and < 0.01 µM | 14.6 µM | 0.0871 µM and 0.0284 µM | < 0.01 µM | < 0.01 µM | < 0.01 µM | < 0.01 µM | < 0.01 µM | < 0.01 µM | < 0.01 µM |
| C=CCN(N=O)C(=O)ON1C(=O)CCC1=O | > 100 µM | > 100 µM | > 100 µM | > 100 µM | > 100 µM |  | > 100 µM | > 100 µM | > 100 µM | > 100 µM |  |  |  |  |  |  |  |
| c1cc2ccc1C1NCCCN1CCN1CCCNC1c1ccc(cc1)C1NCCCN1CCN1CCCNC21 (stereo not drawn) | > 100 µM | > 100 µM | > 100 µM | > 100 µM | > 100 µM |  | > 100 µM | > 100 µM | > 100 µM | > 100 µM |  |  |  |  |  |  |  |
| C/C(N=NC(=S)N1CCCCCC1)=C1\C=CC=CN1O | > 100 µM | > 100 µM | > 100 µM | 20.1 µM | 10.9 µM |  | > 51.3 µM | > 100 µM | > 49.4 µM | > 100 µM |  |  |  |  |  |  |  |
| COC(=O)C1=C(C(=O)OC)C(C(=O)OC)C(C(=O)OC)C(C(=O)OC)(C(=O)OC)C(C(=O)OC)=C1C(=O)OC (stereo not drawn) | 21.8 µM | 35.3 µM | 27.5 µM | 6.71 µM | 27 µM | 30.1 µM | 22.4 µM | 35.9 µM | 25.2 µM | 31.3 µM |  |  |  |  |  |  |  |
